Source: article PMC8151276, “An Integrated Approach toward NanoBRET Tracers for Analysis of GPCR Ligand Engagement” (Molecules, 2021)
Values belong to the molecule of their own block, whether it stands above or below them.

Columns and labels:
Assay type in all cases: binding
CCR9 = target: T1, CCR9 (Homo sapiens, UniProt P51686); test: NanoBRET screen HiBiT-CCR9 in HEK293
T1 construct: purchased Promega (in-house HiBiT-GPCR construct library, NanoBRET)
T1 sequence (P51686 1-369): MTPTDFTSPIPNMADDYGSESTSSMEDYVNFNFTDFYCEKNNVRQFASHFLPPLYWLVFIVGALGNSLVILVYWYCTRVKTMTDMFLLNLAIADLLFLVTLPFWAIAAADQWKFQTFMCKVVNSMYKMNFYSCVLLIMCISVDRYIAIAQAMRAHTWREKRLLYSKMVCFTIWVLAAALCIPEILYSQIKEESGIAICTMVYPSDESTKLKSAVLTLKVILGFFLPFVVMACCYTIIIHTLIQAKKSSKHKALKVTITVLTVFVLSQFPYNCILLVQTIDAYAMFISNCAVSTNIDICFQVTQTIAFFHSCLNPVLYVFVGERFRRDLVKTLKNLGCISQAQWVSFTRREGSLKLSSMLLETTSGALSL
Protocol: (§1) Each tracer candidate was screened across the entire library of HiBiT-GPCR constructs using NanoBRET as the detection modality. As depicted in Figure 4A, the specificity of interactions was evaluated through decrease in BRET due to competitive displacement of a bound tracer by excess parental compound. Each tracer was analyzed for binding to each HiBiT-GPCR fusion in the absence and in the presence of competing parental compound. Briefly, HEK293 cells were transfected with HiBiT-GPCR constructs diluted into promoterless DNA to reduce expression and maximize translocation to the cell surface. Each tracer candidate was then screened at concentrations of 1 μM and 0.1 μM across cells expressing these fusions. Cells were treated for 1.5 h with tracer either alone or in the presence of 20 μM competing parental compound (i.e., control). BRET was measured upon addition of purified LgBiT and subsequent complementation with HiBiT genetically fused to a GPCR. The specificity of interactions was assessed through a decrease in BRET signal due to competitive displacement of the bound tracer. To further gauge the robustness of these interactions, the fold response over the control (i.e., BRETtracer/BRETcontrol) was calculated. We chose a 1.5-fold response, which translates to ≥7-fold signal over noise as the minimal threshold required to score an interaction as positive. […]. Below we highlight the screening results obtained for our exemplary fluorescent tracers based on Clozapine, Amitriptyline and AZD1283.
(§2) HiBiT-GPCR DNA constructs were diluted in 10 mM Tris pH 8 to a final concentration of 0.01 μg/μL, arrayed in 96-well plates and stored at −20 °C. For transfection, HEK293 cells were suspended in Opti-MEM (without phenol red) supplemented with 2% fetal bovine serum (Seradigm) and 100 units/mL penicillin–streptomycin (Gibco) at a final concentration of 220,000 cells/mL and dispensed into white 96-well plates at 90 μL/well. Subsequent transfections and screens were carried using an Agilent Bravo Automated Liquid Handling Platform. First, the 96-well HiBiT DNA arrays were diluted 25-fold in Opti-MEM (without serum or phenol red) to a final concentration of 0.0004 μg/μL and 20 μL of the diluted DNAs were transferred into new 96-well plates. Next, promoterless carrier DNA (1 μg/μL) was diluted 25-fold (0.04 μg/μL) and then dispensed into the diluted arrays at 20 μL/well. Following brief mixing, Viafect transfection reagent (Promega) diluted 16-fold into Opti-MEM was dispensed into the plates at 40 μL/well. After mixing by pipetting, plates were incubated for 10 min on the pipetting station deck. The DNA-transfection reagent complexes were then added to plates containing cells. To facilitate the screen, 10 μL of DNA-transfection reagent complexes were added in duplicates to the top 4 and bottom 4 rows, resulting in two identical 48-well arrays per plate. Plates with transfected cells were incubated for 18–20 h at 37 °C/5% CO2. A screen of each tracer across the entire library using two different concentrations requires duplicate plates of transfected cells. Depending on the number of tracers being screened, transfections can be scaled up using the same ratios. The next day, for each tracer, four 20× screening solutions in tracer dilution buffer (Promega) were prepared: two duplicates at final concentration of 20 μM and two duplicates at a final concentration of 2 μM. A competing unmodified compound was added to one of each duplicate at a final concentration of 400 μM. The four resulting solutions were diluted 4-fold in Opti-MEM without serum or phenol red to generate 5× solutions (5 µM and 0.5 µM tracer +/− 100 μM competing compound). To screen the library, a BioTek MultiFlo FX liquid dispenser was used to dispense 22.5 µL of tracer solution to the top 4 rows and 22.5 µL tracer + competing compound solution to the 4 bottom rows. Plates were briefly mixed on an orbital shaker and incubated for 1.5 h at room temperature. […]

TBXA2R = target: T2, TBXA2R (Homo sapiens, UniProt P21731); test: NanoBRET screen HiBiT-TBXA2R in HEK293
T2 construct: purchased Promega (in-house HiBiT-GPCR construct library, NanoBRET)
T2 sequence (P21731 1-343): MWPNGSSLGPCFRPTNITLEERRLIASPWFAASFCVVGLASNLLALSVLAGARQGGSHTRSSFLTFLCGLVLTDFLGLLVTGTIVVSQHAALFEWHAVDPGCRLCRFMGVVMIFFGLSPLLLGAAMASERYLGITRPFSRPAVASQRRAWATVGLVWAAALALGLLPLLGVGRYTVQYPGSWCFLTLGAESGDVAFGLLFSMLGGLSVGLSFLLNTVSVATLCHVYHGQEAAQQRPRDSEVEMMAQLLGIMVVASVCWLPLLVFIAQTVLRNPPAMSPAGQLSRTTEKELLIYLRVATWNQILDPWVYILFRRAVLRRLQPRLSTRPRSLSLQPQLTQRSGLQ
Protocol: as §1, §2

PTGER2 = target: T3, PTGER2 (Homo sapiens, UniProt P43116); test: NanoBRET screen HiBiT-PTGER2 in HEK293
T3 construct: purchased Promega (in-house HiBiT-GPCR construct library, NanoBRET)
Protocol: as §1, §2

T3 sequence (P43116 whole entry): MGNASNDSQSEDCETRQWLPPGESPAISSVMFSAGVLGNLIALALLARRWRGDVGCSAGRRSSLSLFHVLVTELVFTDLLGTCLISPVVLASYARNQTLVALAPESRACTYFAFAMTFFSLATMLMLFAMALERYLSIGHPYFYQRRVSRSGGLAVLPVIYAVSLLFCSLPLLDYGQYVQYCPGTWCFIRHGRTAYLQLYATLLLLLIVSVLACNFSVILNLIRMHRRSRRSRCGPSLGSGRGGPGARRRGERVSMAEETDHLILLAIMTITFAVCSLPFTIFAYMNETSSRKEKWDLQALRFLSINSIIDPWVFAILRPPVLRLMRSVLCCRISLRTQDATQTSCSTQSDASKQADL

NanoBRET Fold Response (CCR9; 0.1μM tracer): 1.05
NanoBRET Fold Response (CCR9; 1μM tracer): 1.04
NanoBRET Fold Response (TBXA2R; 0.1μM tracer): 0.84
NanoBRET Fold Response (TBXA2R; 1μM tracer): 0.94
NanoBRET Fold Response (PTGER2; 0.1μM tracer): 1.01
NanoBRET Fold Response (PTGER2; 1μM tracer): 1.07
SMILES: COc1ccc2c(n1)c(CCNC(C)=O)cn2CCNC(=O)CCc1ccc2n1[B-](F)(F)[N+]1=C(c3ccc[nH]3)C=CC1=C2 [Azamelatonin-1-NB590]

NanoBRET Fold Response (CCR9; 0.1μM tracer): 0.97
NanoBRET Fold Response (CCR9; 1μM tracer): 0.89
NanoBRET Fold Response (TBXA2R; 0.1μM tracer): 1.27
NanoBRET Fold Response (TBXA2R; 1μM tracer): 0.99
NanoBRET Fold Response (PTGER2; 0.1μM tracer): 1.01
NanoBRET Fold Response (PTGER2; 1μM tracer): 0.97
SMILES: COc1ccc2[nH]c(-c3ccc(CNC(=O)CCOCCOCCOCCOCCNC(=O)CCc4ccc5n4[B-](F)(F)[N+]4=C(c6ccc[nH]6)C=CC4=C5)cc3)c(CCNC(C)=O)c2n1 [AzomelatoninICO9-2-NB590]

Continued, molecule first:

SMILES: CCOC(=O)c1cc(C#N)c(N2CCC(C(=O)NS(=O)(=O)Cc3ccccc3/C=C/C(=O)NCCNC(=O)CCc3ccc4n3[B-](F)(F)[N+]3=C(c5ccc[nH]5)C=CC3=C4)CC2)nc1C [AZD1283-1-NB590]
NanoBRET Fold Response (CCR9; CCR9, 0.1μM): 1.13
NanoBRET Fold Response (CCR9; CCR9, 1μM): 1.10
NanoBRET Fold Response (TBXA2R; TBXA2R, 0.1μM): 1.04
NanoBRET Fold Response (TBXA2R; TBXA2R, 1μM): 1.19
NanoBRET Fold Response (PTGER2; PTGER2, 0.1μM): 1.00
NanoBRET Fold Response (PTGER2; PTGER2, 1μM): 1.04

SMILES: N#CN=C(NCCCOc1cccc(CN2CCCCC2)c1)NCCNC(=O)CCOCCOCCOCCOCCNC(=O)CCc1ccc2n1[B-](F)(F)[N+]1=C(c3ccc[nH]3)C=CC1=C2 [Aminopotentidine-2-NB590]
NanoBRET Fold Response (CCR9; CCR9, tracer 0.1μM): 1.09
NanoBRET Fold Response (CCR9; CCR9, tracer 1μM): 1.11
NanoBRET Fold Response (TBXA2R; TBXA2R, tracer 0.1μM): 0.98
NanoBRET Fold Response (TBXA2R; TBXA2R, tracer 1μM): 1.04
NanoBRET Fold Response (PTGER2; PTGER2, tracer 0.1μM): 0.99
NanoBRET Fold Response (PTGER2; PTGER2, tracer 1μM): 1.03

SMILES: CN(C)CCC=C1c2ccccc2CCc2ccc(C(=O)NCCNC(=O)CCOCCOCCOCCOCCNC(=O)CCc3ccc4n3[B-](F)(F)[N+]3=C(c5ccc[nH]5)C=CC3=C4)cc21 [Amitriptyline-a-2-NB590]
NanoBRET Fold Response (CCR9; tracer at 0.1μM): 0.99
NanoBRET Fold Response (CCR9; tracer at 1μM): 1.05

SMILES: CN(C)CCC=C1c2ccccc2CCc2ccc(C(=O)NCCNC(=O)CCOCCOCCOCCOCCNC(=O)CCc3ccc4n3[B-](F)(F)[N+]3=C(c5ccc[nH]5)C=CC3=C4)cc21 [Amitriptyline-b-2-NB590]
NanoBRET Fold Response (CCR9; tracer at 0.1μM, listed as amitriptyline-b-2-NB590): 0.81
NanoBRET Fold Response (CCR9; tracer at 1μM, listed as amitriptyline-b-2-NB590): 0.84
NanoBRET Fold Response (TBXA2R; tracer at 0.1μM): 0.90
NanoBRET Fold Response (TBXA2R; tracer at 1μM): 1.01
NanoBRET Fold Response (PTGER2; tracer at 0.1μM): 1.01
NanoBRET Fold Response (PTGER2; tracer at 1μM): 1.01

SMILES: CN(CCC=C1c2ccccc2CCc2ccccc21)C(=O)CCOCCOCCOCCOCCNC(=O)CCc1ccc2n1[B-](F)(F)[N+]1=C(c3ccc[nH]3)C=CC1=C2 [Amitriptyline-e-2-NB590]
NanoBRET Fold Response (CCR9; tracer at 1μM): 0.95
